Several values for one entry are separate records, joined by “and”; a condition that tells them apart may be missing. Equal values may be shown once. Read-outs that look alike come from different tables or passages of the source.
Assays:
Scenedesmus WC-1 = conditions: for total Nile Red fluorescence reached: began to increase at 5 d; for Dry Weight (DCW) / Final Cell Density / Final Total Nile Red Fluorescence / Final Specific Nile Red Intensity Cell-1: WC-1, 5% CO2 → Air; for Dry Weight (DCW) / Final Cell Density / Final Total Nile Red Fluorescence: n = 3; for Final Specific Nile Red Intensity Cell-1: fluorescence signal/cell density × 10,000
Procedure: Cultures were grown with 5% CO2 until nitrate depletion was imminent.
(§1) Scenedesmus sp. strain WC-1 (WC-1) was isolated and confirmed unialgal as previously described (Gardner et al. 2010). WC-1 was cultured on Bold's basal medium with pH adjusted to 8.7 with KOH previous to autoclaving (Nichols and Bold 1965). Phaeodactylum tricornutum strain Pt-1 (CCMP 2561) (Pt-1) was acquired from The Provasoli-Guillard National Center for Culture of Marine Phytoplankton (CCMP). Pt-1 was cultured on ASP II medium and 50 mM Tris buffer (Sigma-Aldrich, St. Louis Mo.), pKa 7.8 (Provasoli et al. 1957). Both organisms were checked for bacterial contamination by inoculation into respective medium supplemented with 0.05% yeast extract and 0.05% glucose and incubated in the dark. Experiments were conducted in triplicate in batch culture using 70 mm×500 mm glass tubes containing 1 L media submersed in a water bath to control temperature. Rubber stoppers, containing ports for aeration and sampling, were used to seal the tubes. Temperature was maintained at 24° C. and 20° C., ±1° C., for WC-1 and Pt-1, respectively. Light (400 μmoles m^−2s^−1) was maintained on a 14:10 light:dark cycle by a T5 light bank. Aeration (400 mL min^−1) was supplied by humidified compressed air with and without 5% CO2 (v/v) and controlled using individual rotameters on each bioreactor (Cole-Parmer, Vernon Hills Ill.).
(§2) Cell concentrations were determined using an optical hemacytometer with a minimum of 400 cells counted for statistical reliability. Light micrographs and Nile Red fluorescence images were taken using a transmitted/epifluorescence light microscope (Nikon Eclipse E800) with an Infinity 2 color camera.
Medium pH was measured on samples using a standard bench top pH meter. Nitrate in Bolds basal medium was measured by ion chromatography (IC) using an IonPac AS9-HC Anion-Exchange Column (Dionex) with a 9.0 mM sodium carbonate buffer set at a flow rate of 1.0 mL min^−1. Detection was performed using a CD20 conductivity detector (Dionex) at 21° C., and IC data was analyzed on Dionex PeakNet 5.2 software. Nitrate in ASP II medium was measured using a colorimetric assay based on the reaction of Czechrome NAS reagent (Polysciences Inc., Warrington Pa.) with nitrate ions. In brief, 1 mL of culture was centrifuged at 16,000 g for 15 minutes. The supernatant liquid was then collected for nitrate quantification. 0.1 mL of sample was gently mixed with 1 mL of reagent solution prepared as described by the manufacturer (Polysciences Inc., Warrington Pa.), and incubated 20 minutes at room temperature. The absorbance was read at 570 nm, and nitrate concentration of the sample was calculated using a nitrate standard curve.
(§3) Cellular TAG accumulation was estimated using the Nile Red (9-diethylamino-5H-benzo(α)phenoxazine-5-one) (Sigma-Aldrich, St. Louis Mo.) fluorescence method (Cooksey et al. 1987). TAG accumulation over time was measured by removing 1 mL aliquots from cultures and assayed directly with Nile Red (4 μL from […] in acetone) or by diluting with 4 mL ultrapure H2O or salt water for WC-1 and Pt-1, respectively, before assaying directly with Nile Red (20 μL from […] in acetone). To maintain linearity of the Nile Red assay, dilution was required when population counts exceeded 1×10^7 cell mL^−1 and 3×10^6 cell mL^−1 for WC-1 and Pt-1, respectively. Total Nile Red fluorescence was quantified on a microplate reader (Bio-Tek, Winooski, Vt.) utilizing 480/580 nm excitation/emission filters.

Chlorophyta sp. EN-2 = conditions: 50 mM NaHCO3 prior to nitrate depletion
Procedure: The addition of 50 mM NaHCO3 prior to nitrate depletion was tested on Chlorophyta sp. EN-2.

Scenedesmus sp. 131 = conditions: 50 mM NaHCO3 prior to nitrate depletion
Procedure: (§4) The addition of 50 mM NaHCO3 prior to nitrate depletion was tested on Chlorophytes Scenedesmus sp.

Kirchneriella sp. 92 = conditions: 50 mM NaHCO3 prior to nitrate depletion
Procedure: as §4

diatom RGd-1 = conditions: bicarbonate spike at 7.4 d, within 2-3 d of the spike, ambient air, 14:10 light-dark
From the text: RGd-1 was obtained from Yellowstone National Park under Permit No. YELL-2009-SCI-5480. These cultures were illuminated with 14:10 light-dark cycling with ambient air aeration.

Coelastrella sp. PC-3 = tested on: Coelastrella sp. PC-3
Procedure: The addition of 50 mM NaHCO3 prior to nitrate depletion was tested on Coelastrella sp. PC-3.

[1] = tested on: Phaeodactylum tricornutum Pt-1
Procedure: The diatom was cultured in ASP II medium, with or without adding NaHCO3 under 14:10 L:D cycle at […] A non-limiting example of ASP II medium is shown below:
as §1, §2
as §3, with “filters. […] To minimize fluorescence spillover, black walled 96-well plates were loaded with 200 μL of sample. Unstained samples were used for background medium and cellular autofluorescence correction. […]” for “filters.”

[2] = HCO3 addition at 3.7 d (pre-nitrate depletion), harvest 8.0 d
[3] = HCO3 addition at 6.4 d (post-nitrate depletion), harvest 12.0 d

O=C([O-])[O-].[Na+].[Na+] [Na2CO3, sodium carbonate, reference compound]
TAG accumulation (Scenedesmus WC-1; all cases of Na2CO3 addition (individual, mix, buffered), near nitrate depletion): did not accumulate elevated levels of TAG

O=C([O-])O.[Na+] [bicarbonate, sodium bicarbonate]
TAG accumulation rate (Chlorophyta sp. EN-2): observable increase
TAG per cell level (Nile Red specific fluorescence) (Chlorophyta sp. EN-2): observable increase
TAG induction (Scenedesmus WC-1; 25 mM NaHCO3 with 25 mM CAPS buffer (pKa 10.3), near nitrate depletion): almost identical to the unbuffered additions
period of TAG accumulation (Scenedesmus WC-1; 50 mM bicarbonate added at 3.7 d (pre-nitrate depletion)): 5 to 8 days
Nile Red fluorescence after decrease to baseline (Scenedesmus WC-1; 50 mM bicarbonate added at 6.4 d, post-nitrate depletion): 450 units
Nile Red fluorescence / TAG accumulation response (Scenedesmus WC-1; 50 mM bicarbonate added post-nitrate depletion (stationary phase), aeration adjusted to ambient air, listed as NaHCO3): complete loss of cellular TAG accumulation
TAG accumulation (Scenedesmus WC-1; 25 and 50 mM added to unbuffered medium near nitrate depletion (FIG. 15)): induce similar levels of TAG
total Nile Red fluorescence reached (Scenedesmus WC-1; Example 4: 50 mM bicarbonate spike at 3.7 d, value 4 days later): 20,000 units
total Nile Red fluorescence reached (Scenedesmus WC-1; Example 5: 50 mM bicarbonate addition at 3.7 d, value 3 days later): 33,500 units
Dry Weight (DCW) (Scenedesmus WC-1; [2]): 1.1 ± 0.1 g/L
Final Cell Density (Scenedesmus WC-1; [2]): 1.34 ± 0.15 ×10^7 cells mL^−1
Final Total Nile Red Fluorescence (Scenedesmus WC-1; [2]): 33.5 ± 6.3 ×10^3 units
Final Specific Nile Red Intensity Cell-1 (Scenedesmus WC-1; [2]): 24.8 ± 2.2
Dry Weight (DCW) (Scenedesmus WC-1; [3]): 2.1 ± 0.0 g/L
Final Cell Density (Scenedesmus WC-1; [3]): 5.18 ± 0.41 ×10^7 cells mL^−1
Final Total Nile Red Fluorescence (Scenedesmus WC-1; [3]): 0.3 ± 0.3 ×10^3 units
Final Specific Nile Red Intensity Cell-1 (Scenedesmus WC-1; [3]): 0.1 ± 0.1
minimal concentration range needed to stop cellular replication (Scenedesmus WC-1; addition just prior to medium nitrate depletion): 10 to 15 mM
culture time at which maximum total Nile Red fluorescence was reached (Scenedesmus WC-1; bicarbonate supplemented culture, instead of 16-18 d in ambient aerated culture): 8 days
cell morphology by microscope (Scenedesmus WC-1; less than 10 mM NaHCO3 addition): did not indicate cell cycle halting characteristics
rate of TAG accumulation (Scenedesmus WC-1; when bicarbonate was added (50 mM, near nitrate depletion), versus ambient aerated culture): twice as fast
time to reach maximum Nile Red fluorescence signal (Scenedesmus WC-1; with bicarbonate spike, compared with 8-10 d under ambient air aeration with no spike): 3 to 4 days
TAG accumulation rate (Scenedesmus sp. 131): increase in TAG accumulation rate
TAG accumulation rate (Kirchneriella sp. 92): decrease in TAG accumulation rate
total Nile Red fluorescence increase over the no spike control (diatom RGd-1): 10 fold
TAG accumulation measured with Nile Red fluorescence (Coelastrella sp. PC-3): no observable increase in TAG accumulation
effect on cellular replication (Coelastrella sp. PC-3): cellular replication ceased
Dry Weight (DCW) [1]: 0.1 ± 0.0 g/L
Final Cell Density [1]: 0.65 ± 0.01 ×10^7 cells mL^−1 and 1.02 ± 0.05 ×10^7 cells mL^−1
effect on cell replication [1]: cell replication was not inhibited
lipid production (Nile Red fluorescence) [1]: stimulated more lipid production

From patent US9096875B2 (Montana State University, priority 2010, dated 2015)
